Like-named read-outs stand apart in the source and are kept apart here.
Columns and labels:
[1] = test system: men with mild-to-severe ED; conditions: cited from earlier work
[2] = test system: men with ED; conditions: cited from earlier work
[3] = test system: PAH; conditions: oral; cited from earlier work
[4] = hydrophobicity scale of amino acids; type: physicochemical; conditions: scale on which glycine has the value 0.5
Description: Hydrophobicity is generally defined with respect to the partition of an amino acid between a nonpolar solvent and water. Hydrophobic amino acids are those acids which show a preference for the nonpolar solvent. Relative hydrophobicity of amino acids can be expressed on a hydrophobicity scale on which glycine has the value 0.5. On such a scale, amino acids which have a preference for water have values below 0.5 and those that have a preference for nonpolar solvents have a value above 0.5. As used herein, the term hydrophobic amino acid refers to an amino acid that, on the hydrophobicity scale has a value greater or equal to 0.5, in other words, has a tendency to partition in the […] which is at least equal to that of glycine.
A mixture including 40 weight % of an amino acid and 60 weight % DPPC is formed in a 70/30 vol/vol ethanol-water co-solvent and spray-dried and the geometric aerodynamic diameters for the particles are determined. In addition, the hydrophobicity and tap density may also be determined. Tap density may be determined using the equation provided above.

[5] = test system: pulmonary hypertension; conditions: in vivo; cited from earlier work
[6] = test system: patients with severe PAH; conditions: versus placebo; cited from earlier work
[7] = test system: erectile dysfunction (ED); conditions: in vivo; cited from earlier work
[8] = dissolution of HDC glass discs in water; type: physicochemical
[9] = test system: pulmonary hypertension; conditions: cited from earlier work
[10] = glass stability of derivatized carbohydrates immersed in aqueous medium; type: physicochemical; conditions: THEX: saline medium at 37° C.; lactose derivative: water
[11] = test system: African Green monkey kidney-derived cell line Vero; assay: toxicity of HDC glasses in vitro; type: cell-based; conditions: week of culture
Description: A saturated solution of TOAC in deionized distilled water (0.42 g in 20 mls) is tested for toxicity in vitro using the African Green monkey kidney-derived cell line Vero, in either a 10-fold serial dilution or by adding the TOAC powder directly to the tissue culture medium.

[12] = test system: patients with pulmonary hypertension; conditions: administered by aerosolization; cited from earlier work

In the case of `CN1CC(=O)N2[C@H](c3ccc4c(c3)OCO4)c3[nH]c4ccccc4c3C[C@@H]2C1=O` [Cialis, tadalafil], the “most commonly reported treatment-emergent adverse effects” value ([1]; greater than or equal to 5 percent) is listed as “headache, back pain, and upset stomach”, the “patients who discontinued the study because of adverse events” value ([1]; in vivo) is listed as 5% and the “most commonly reported treatment-emergent adverse effects” value ([2]; 10 mg, increased to 20 mg, at least one year) is listed as “headache and upset stomach”. The “discontinuation rate for any individual adverse event” value ([2]; in vivo) was “less than 1%” and the “patients who discontinued the study due to side effects” value ([2]; in vivo) was “Five”.
In the case of `CC#CCC(C)[C@H](O)/C=C/[C@@H]1[C@H]2c3cccc(CCCC(=O)O)c3O[C@H]2C[C@H]1O` (mixture of isomers) [Beraprost], the “benefit in PAH” value [3] is given as “benefit in a study in PAH at 3 and 6 months but not at 9 or 12 months”.
Work on `CC[C@H](C)[C@H](N)C(=O)O` [Isoleucine] yielded a hydrophobicity [4] of 0.943.
Work on `N[C@@H](Cc1ccccc1)C(=O)O` [Phenylalanine] yielded a hydrophobicity [4] of 0.501.
In the case of `Cc1cc2c(cc1CC(=O)c1sccc1S(=O)(=O)Nc1onc(C)c1Cl)OCO2` [sitaxsentan], the “decrease in pulmonary vascular resistance” value [5] is given as 30% and the “six minute walk test” value [5] is given as “improvement”.
For `CC#CCC(C)[C@H](O)/C=C/[C@@H]1[C@H]2C/C(=C/CCCC(=O)O)C[C@H]2C[C@H]1O` (some centres unmarked) [iloprost], the exercise capacity [6] is listed as “improved exercise capacity”.
In the case of `CCCc1nc(C)c2c(=O)[nH]c(-c3cc(S(=O)(=O)N4CCN(CC)CC4)ccc3OCC)nn12` [Levitra, vardenafil HC1], the “most commonly reported side effects” value [7] is listed as “headache, flushing, and stuffy or runny nose”.
With `CC(=O)OC[C@H]1O[C@@H](OC(C)=O)[C@H](OC(C)=O)[C@@H](OC(C)=O)[C@@H]1OC(C)=O` [β-D-glucose pentaacetate] the “solubility of the glass in water” value [8] was “poorly soluble in water” and the “loss of original weight” value ([8]; disc 20 mm diameter, 2.5 mm thick, flowing water, 10 days) was “about 33%”.
In the case of `CC(=O)OC[C@H]1O[C@H](OC(C)=O)[C@H](OC(C)=O)[C@@H](OC(C)=O)[C@@H]1OC(C)=O` [α-D-glucose pentaacetate], the “loss of original weight” value ([8]; disc in 1 l of water replaced daily, 7 days) is reported as 20%.
For `COc1ccccc1Oc1c(NS(=O)(=O)c2ccc(C(C)(C)C)cc2)nc(-c2ncccn2)nc1OCCO` [bosentan], the liver toxicity ([9]; higher dose) is given as “liver toxicity occurred” and the “six minute walk test” value ([9]; whole group) is given as “improved”.
With `CC(C)(C)CC(=O)O[C@@H]1[C@@H](OC(=O)CC(C)(C)C)[C@@H](O[C@H]2O[C@H](CO)[C@@H](OC(=O)CC(C)(C)C)[C@H](OC(=O)CC(C)(C)C)[C@H]2OC(=O)CC(C)(C)C)O[C@H](CO)[C@H]1OC(=O)CC(C)(C)C` [THEX, Trehalose hexa-3,3-dimethylbutyrate] the “stability of the glassy state when immersed” value [10] was “stable in the glassy state”.
`N[C@@H](CCC(=O)O)C(=O)O` [Glutamate] gave a hydrophobicity [4] of 0.043.
With `CC(=O)OC[C@H]1O[C@@H](O[C@H]2[C@H](OC(C)=O)[C@@H](OC(C)=O)C(OC(=O)C(C)C)O[C@@H]2COC(C)=O)[C@H](OC(C)=O)[C@@H](OC(C)=O)[C@H]1OC(C)=O` (some centres unmarked) [lactose isobutyrate heptaacetate] the “stability of the glassy state when immersed” value [10] was “very stable in the glassy state”.
With `CC(=O)OCC1OC(OC2OC(COC(C)=O)C(OC(C)=O)C(OC(C)=O)C2OC(C)=O)C(OC(C)=O)C(OC(C)=O)C1OC(C)=O` (centres unmarked) [TOAC, trehalose octaacetate] the toxicity in vitro ([11]; saturated solution in water (0.42 g in 20 mls), 10-fold serial dilution or powder added to the medium) was “No toxic effects” and the cell division [11] was “normal”.
In the case of `CCCCC[C@H](O)/C=C/[C@@H]1[C@H]2C/C(=C/CCCC(=O)O)O[C@H]2C[C@H]1O` [prostacyclin], the duration of effects [12] is given as 15 min.
